From patent publication US8163776B2, “Method of immunomodulation using thione-forming disulfides” (Grassetti family Trust, priority 2001, dated 2012)
Where “and” joins values, the source holds several entries; their conditions need not be identical. Equal values may be shown once.

Columns and labels:
[1] = system: feline immunodeficiency virus (FIV); assay: CPDS in an FIV-infected cat (Example 8); assay type: in vivo
Description: A cat infected with feline immunodeficiency virus (FIV) was given 140 mg CPDS each morning. The CPDS was mixed with the cat's chow (food). The 140 mg CDPS dosage regimen was continued for 2 weeks. At this time, the cat's overall conditions (thin facial hair, dull eyes, excorations of the skin, appetite, general behavior) improved. After the 2 week timepoint, the dosage regimen was increased to 140 mg CPDS every morning and night (280 mg CPDS daily), mixed in the cat chow. […] The cat's eyes were bright, facial hair was thick, appearance of hair was shiny, and the cat regained its appetite and gained 300 g in weight.

splenocytes = assay: Total splenocyte (lymphocyte) count, trypan blue exclusion; assay type: in vivo, BALB/c mice; conditions: for Total Lymphocyte Counts: spleen
Description: Splenocytes were isolated by obtaining spleen from the sacrificed mice on the same experimental day, homogenizing the spleen using a 50-M mesh screen, and suspending the homogenate in 25 ml of RPMI 1640. The splenocyte suspension was washed and then spun at 1200 rpm for 5 minutes. The red blood cells were lysed by an osmotic choc with distilled water. The splenocyte suspension was washed and spun at 1200 rpm for 5 minutes. The splenocytes were suspended in complete RPMI media (90% RPMI 1640, 10% FBS, antibiotics 1×, HEPES 1 mM) and the suspension was filtered through cotton wool. Cells were counted using trypan blue exclusion method. Total splenocyte count was recorded (Table 7). Cells were kept on ice and diluted to the appropriate concentration for the corresponding experimental procedures.
To count splenocytes, two chambers of the hemacytometer were counted and the mean was calculated. The total splenocyte count was calculated by the following formula: Total splenocyte count=mean count×10 (dilution factor)×10^4×suspension volume. The mean was calculated for each control and treated group. Student's T test was performed between the control group and the treated group. The p value was calculated for statistical significance. Following spleen homogenization, the total number of splenocytes isolated was counted using a standard trypan blue method which discriminates between viable and non viable cells.

NK cells = assay: NK cell activity, standard 51Cr release assay with YAC-1 target cells; assay type: in vivo, BALB/c mice; parameters: NK activity (%): concentration or dose not given beside the values; conditions: for NK activity (%): % specific lysis, E:T 200:1
Description: NK cell activity was determined by using a standard NK assay (Coligan, J. E. et al. 1993. “In Vitro Assays for mouse lymphocyte function” Chapter 3, Current Protocol in Imnunology, John Wiley & Sons, New York) using YAC-1 cells (ATCC #TIB-160) as target cells. These cells were washed twice with HBSS, counted, and suspended at a concentration of 5×10^6 cells/ml. About 5×10^6 cells were labeled with 100 μCi of ^51Cr. Cells were incubated 90 minutes at 37° C. in a 5% CO2 humidified incubator and then washed three times with RPMI, counted, and suspended at a concentration of 1×10^5 cells/ml in complete RPMI. About 100 μl of target cells (˜1×10^4 cells) was put into each well of a round-bottom 96 wells plate.
Four dilutions of splenocytes were prepared: 2×10^7 cells/ml, 1×10^7 cells/ml, 0.5×10^7 cells/ml, and 0.25×10^7 cells/ml. A volume of 100 μl of each splenocyte dilution was plated in triplicate with the target cells for a final effector:target (E:T) ratio of 200:1, 100:1, 50:1 and 25:1.
A maximal control release was prepared in triplicate on each plate by adding 100 μl of 5% Triton X-100 solution instead of effector cells. Spontaneous release was prepared in triplicate on each plate by adding 100 μl of complete RPMI instead of effector cells. Plates were centrifuged and incubated 4 hours at 37° C. in a 5% CO2 humidified incubator. After incubation, the supernatants were collected and the ^51Cr release was determined using a gamma counter. The average cpm count was calculated for each triplicate. The average cpm count for the total and spontaneous release was also calculated. The percentage (%) of specific lysis is calculated using the following formula:
Where, ER=Experimental release of ^51Cr • TR=Total release of ^51Cr • SR=Spontaneous release of ^51Cr
The % of specific lysis for every ratio (200:1, 100:1, 50:1 and 25:1) was calculated. A graphic representation of the results is done: specific lysis % versus the ratio to verify the linearity. For BALB/c mice strains which usually show low NK activity, specific lysis corresponding to an E:T ratio of 200:1 is used to represent the data for each animal. The mean NK activity is then calculated for each control and treated group. Student's T test was performed between the control group and the treated group. The p value was calculated for statistical significance.
In this assay, the effect on the NK activity of feeding Balb/c mice with compound CPDS for short term (6 days) and longer term (30 days) was evaluated. The NK cells are a lymphocyte subset with non specific cytotoxicity activity. Results are presented as the % of specific lysis of target cells for a ratio of 200:1 (Table 8 and FIG. 2). Balb/c mice normally show low NK activity which justifies the choice of the 200:1 ratio for the comparison between groups.

[2] = literature statement; cited from earlier work
[3] = Group 2, 30 days on CPDS diet, individual mice
[4] = Group 6, 6 days on CPDS diet, individual mice

SMILES: O=C(O)c1ccc(SSc2ccc(C(=O)O)cn2)nc1 [CPDS, 6,6′-dithiodinicotinic acid]
- Cat's overall conditions (facial hair, eyes, skin, appetite, general behavior) ([1]; FIV-infected cat, 140 mg CPDS each morning in chow for 2 weeks): improved
- Physical condition, appearance and behavior ([1]; FIV-infected cat, 280 mg CPDS daily for a total of 59 days): improved physical condition, improved overall physical appearance, and improved behavior
- Weight gained by the cat ([1]; FIV-infected cat, after 30 days): 300 g
- Cat's overall conditions ([1]; FIV-infected cat, after 30 days, 280 mg CPDS daily after week 2): overall conditions had improved
- Health of the cat at follow-up ([1]; after treatment for 100 days and a year and half after treatment): appeared entirely healthy
- Total Lymphocyte Counts, variation (splenocytes; Group 2, 30 days on CPDS diet vs group 1 (normal diet)): −15.58%
- Total Lymphocyte Counts (splenocytes; Group 2, 30 days on CPDS diet, group Mean): 5.01 × 10^7
- Total Lymphocyte Counts (splenocytes; [3]): 3.94 × 10^7 and 5.18 × 10^7 and 6.03 × 10^7 and 4.47 × 10^7 and 5.54 × 10^7 and 5.91 × 10^7 and 4.77 × 10^7 and 4.25 × 10^7
- Total Lymphocyte Counts, variation (splenocytes; Group 6, 6 days on CPDS diet vs group 5 (normal diet)): −30.97%
- Total Lymphocyte Counts (splenocytes; Group 6, 6 days on CPDS diet, group Mean): 4.16 × 10^7
- Total Lymphocyte Counts (splenocytes; [4]): 3.08 × 10^7 and 4.58 × 10^7
- Necrosis or loss of splenocyte viability (splenocytes; after 6 and 30 days CPDS diet): No signs of necrosis or loss of splenocyte viability were observed
- NK activity, effect of CPDS diet (NK cells; 6 days, vs control): No significant effect
- NK activity, variation (NK cells; Group 2, 30 days on CPDS diet vs Group 1): 24.7%
- NK activity (%) (NK cells; Group 2, 30 days on CPDS diet, Mean ± S.D.): 6.8 ± 1.4%
- NK activity (%) (NK cells; [3]): 8.7% and 7.9% and 5.0% and 6.9% and 6.3% and 5.6% (2×) and 8.2%
- NK activity, variation (NK cells; Group 6, 6 days on CPDS diet vs group 5): −13.1%
- NK activity (%) (NK cells; Group 6, 6 days on CPDS diet, Mean ± S.D.): 7.9 ± 2.0%
- NK activity (%) (NK cells; [4]): 10.2% and 7.0% and 6.6%
- Toxicity [2]: low toxicity
